Where two headings read alike, the source gives them in different places.
Experiments:
wheat LTP [1] = target: T1, wheat LTP (Triticum aestivum, UniProt P24296); assay: CPA displacement assay (competitive, CPA as tracer); format: binding; conditions: for Ki: Cheng-Prusoff; for ΔG Wheat: ΔG = -RTln(Ki)
T1 construct: Intact protein (residues 1–90); from tissue; host or cells: wheat bran
T1 sequence (P24296 24-113): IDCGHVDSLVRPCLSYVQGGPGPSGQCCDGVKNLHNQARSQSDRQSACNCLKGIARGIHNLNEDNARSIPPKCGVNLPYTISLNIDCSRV
Experimental: (§1) Ligand binding was assessed using a fluorescence assay based on cis-parinaric acid originally described by Cooper et al.[22]. Fluorescence intensity was measured at 25 °C with a LS55 Luminescence Spectrometer (Perkin Elmer, Cambridge, UK) using a […] slit width for both excitation (λ = 320 nm) and emission (λ = 420 nm) and the measurement taken for no longer than 1.5–2s. CPA (3 mM in ethanol) was titrated by 1 μL injections into 1 mL of LTP solutions (5 μM in 50 mM phosphate buffer pH 7.5) in a stepwise manner. Binding curves were fitted with GraphPad Prism using the rectangular hyperbolic function of Hill’s equation. For non-fluorescent ligands, a competitive assay was developed using CPA as a tracer ligand. CPA concentrations close to the calculated Kd of each LTP[49][50] (at either 1 or 0.5 μM CPA for peach LTP and 2 or 1 μM CPA for wheat LTP in 50 mM phosphate buffer pH 7.5 or pH 2.5, 150 mM NaCl, respectively) were used. After equilibrating for 2–3 min with gentle mixing, the competing non-fluorescent ligands (1 mM of palmitic acid, 16-OH palmitic acid, 12-OH stearic acid, linoleic acid or 1-palmitoyl–sn–glycerol–3–phosphatadyl choline (PC) ethanol) were titrated into the LTP solution in 1 μL aliquots. The resulting data were fitted using a sigmoidal curve-fitting logarithm in GraphPad Prism from which the concentration able to displace 50% of the CPA (IC50) was calculated. Ki values were calculated according to Cheng-Prusoff equation[51].

peach LTP [2] = target: T2, peach LTP (Prunus persica, UniProt P81402, A9S/H76S); assay: as above; format: binding; conditions: for ΔG Peach: ΔG = -RTln(Ki)
T2 construct: Peach LTP was purified from the skin of peach fruits; from tissue; host or cells: skin of peach fruits
T2 sequence (P81402 whole entry A9S/H76S): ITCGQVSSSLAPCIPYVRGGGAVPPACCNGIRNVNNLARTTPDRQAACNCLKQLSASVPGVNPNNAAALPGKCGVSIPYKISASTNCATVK
Experimental: as §1

wheat LTP [3] = target: T3, wheat LTP (Triticum aestivum, UniProt P24296); assay: CPA fluorescence titration, direct binding
T3 construct: Intact protein (residues 1–90); from tissue; host or cells: wheat bran
T3 sequence (P24296 24-90 limits assumed): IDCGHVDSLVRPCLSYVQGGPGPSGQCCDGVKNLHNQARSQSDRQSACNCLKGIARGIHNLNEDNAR
Experimental: as §1

peach LTP [4] = target: T4, peach LTP (Prunus persica, UniProt P81402); assay: CPA fluorescence titration, direct binding
T4 construct: Peach LTP was purified from the skin of peach fruits; from tissue; host or cells: skin of peach fruits
T4 sequence (P81402 1-91): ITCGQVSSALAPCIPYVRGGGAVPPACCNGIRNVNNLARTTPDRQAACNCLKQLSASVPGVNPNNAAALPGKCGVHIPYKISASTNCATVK
Experimental: as §1

[5] = 50 mM phosphate, pH 7.5, displacement of 2 μM CPA
[6] = 150 mM NaCl, pH 2.5, displacement of 1 μM CPA
[7] = 50 mM phosphate, pH 7.5, Cheng-Prusoff, read-out: Ki Peach
[8] = 50 mM phosphate, pH 7.5, displacement of 1 μM CPA, read-out: IC50 Peach
[9] = 150 mM NaCl, pH 2.5, Cheng-Prusoff, read-out: Ki Peach
[10] = 150 mM NaCl, pH 2.5, displacement of 0.5 μM CPA, read-out: IC50 Peach

Row | Compound | Ki (wheat LTP [1]; 50 mM phosphate, pH 7.5) [nM] | IC50 (wheat LTP [1]; [5]) [nM] | ΔG Wheat (wheat LTP [1]; 50 mM phosphate, pH 7.5) [kcal/mol] | Ki (wheat LTP [1]; 150 mM NaCl, pH 2.5) [nM] | IC50 (wheat LTP [1]; [6]) [nM] | ΔG Wheat (wheat LTP [1]; 150 mM NaCl, pH 2.5) [kcal/mol] | Ki (peach LTP [2]; [7]) [nM] | IC50 (peach LTP [2]; [8]) [nM] | ΔG Peach (peach LTP [2]; 50 mM phosphate, pH 7.5) [kcal/mol] | Ki (peach LTP [2]; [9]) [nM] | IC50 (peach LTP [2]; [10]) [nM] | ΔG Peach (peach LTP [2]; 150 mM NaCl, pH 2.5) [kcal/mol] | Kd (wheat LTP [3]; 50 mM phosphate, pH 7.5) [nM] | Kd (wheat LTP [3]; 150 mM NaCl, pH 2.5) [nM] | Kd (peach LTP [4]; 50 mM phosphate, pH 7.5) [nM] | Kd (peach LTP [4]; 150 mM NaCl, pH 2.5) [nM] | IC50 (peach LTP [2]) [nM] | Ki (peach LTP [2]) [nM]
1 | 1-palmitoyl–sn–glycerol–3–phosphatadyl choline [Phosphatidyl choline] | 4600 ± 100 | 6700 ± 100 | 7.27 | 2800 ± 100 | 5300 ± 100 | 7.55 | 1100 ± 20 | 2200 ± 30 | 8.13 | 1000 ± 100 | 1800 ± 100 | 8.17 |  |  |  |  |  | 
2 | CC\C=C/C=C/C=C/C=C\CCCCCCCC(=O)O [CPA, cis-parinaric acid] |  |  |  |  |  |  |  |  |  |  |  |  | 4500 ± 200 | 1200 ± 100 | 1000 ± 20 | 600 ± 100 |  | 
3 | CCCCC/C=C\C/C=C\CCCCCCCC(=O)O [Linoleic acid, linoleic acid] | 5300 ± 20 | 7600 ± 30 | 7.19 |  |  |  |  |  | 8.29 |  |  |  |  |  |  |  | 1600 ± 100 | 800 ± 40
4 | CCCCCCCCCCCCCCCC(=O)O [Palmitic acid, palmitic acid] | 3600 ± 100 | 5200 ± 100 | 7.41 |  |  |  |  |  | 8.39 |  |  |  |  |  |  |  | 1400 ± 100 | 700 ± 30
5 | CCCCCCCCCCCCCCCC(=O)OC[C@@H](O)COP(=O)([O-])OCC[N+](C)(C)C [Phosphatidyl choline (vesicular), 1-palmitoyl–sn–glycerol–3–phosphatadyl choline] | 3900 ± 100 | 5600 ± 100 | 7.37 | 3600 ± 100 | 6800 ± 200 | 7.41 | 700 ± 40 | 1500 ± 100 | 8.35 | 800 ± 100 | 1500 ± 100 | 8.29 |  |  |  |  |  | 

Source: article PMC4960534, “Ligand binding to an Allergenic Lipid Transfer Protein Enhances Conformational Flexibility resulting in an Increase in Susceptibility to Gastroduodenal Proteolysis” (Scientific Reports, 2016)
